Test results: patent US20090298752A1, “APLIDINE TREATMENT OF CANCERS” (PHARMA MAR, S.A., priority 1999, published 2009)
“Also recorded” adds a separate entry of the source.

Key:
[1] = system: Hs746T gastric tumour cells; test: in vitro activity on gastric tumour cells; type: cell-based, human
Description: Different model systems were evaluated to provide the basis for further clinical work. Selective antitumour activities were seen against two histologically different solid tumours: human gastric and prostate carcinomas. Potent in vitro activity to primary gastric tumour specimens or Hs746T gastric tumour cells is evident with IC30 values of 146 and 450 pM, respectively. […] activities were evaluated in nude rodents using sc implanted tumour fragments or hollow fibres (HF) containing tumour cells.

[2] = system: solid tumours and Non-Hodgkin's Lymphomas; test: Phase I, 1 h daily infusion x5 q3wk: antitumour activity; type: in vivo, human
Description: (§1) The objectives are to determine the Maximum Tolerated Dose, the Dose Limiting Toxicity (DLT), the pharmacokinetics (PK) and the recommended dose for phase 2 studies that can be given in a daily 1 hour IV infusion×5 days q 3 weeks. Patients with solid tumours and low and intermediate grade Non-Hodgkin's Lymphomas were eligible. The daily starting dose of aplidine was 80 μg/m^2. Cohorts of 3 patients (pts) are treated at each level with dose escalation according to toxicity, 20 patients were treated with 6 dose levels ranging from 80 μg-720 μg/m^2, 1 patient is presently at the dose of 960 μg/m^2. At total of 48 cycles were administered. Non-haematological toxicities were grade 1 and 2 with fatigue reported in most pts. Grade 1 hypersensitivity reactions were documented in 7 patients. Other toxicities included nausea, anorexia, diarrhoea, and anxiety. […] PK analysis was performed in treatment course 1. Aplidine concentrations were analysed by LC tandem mass spectrography. […] Potentially therapeutic plasma concentrations ([…]) were achieved. […] Accrual is ongoing at 960 μg/m^2.

[3] = system: human bladder cancer; test: human bladder cancer animal models; type: in vivo; settings: complete remissions in some animal models
Text: Bladder tumours are one type of tumour over-expressing the receptor to Epithelial Growth Factor (EGF), which leads to upregulation of VEGF and the VEGF receptor. Binding of VEGF to its receptor is believed to lead to cell growth stimulation by means of transitory local calcium ion changes among other mechanisms for signalling. A compound inhibiting VEGF action is expected to be inhibitory to such tumours.

[4] = system: VEGF promoter; test: VEGF promoter activity, luciferase/renilla reporter gene system; type: cell-based; settings: FIG. 13
[5] = system: VEGF promoter; test: VEGF promoter luciferase reporter in MOLT-4 cells; type: cell-based, human; settings: luciferase after 24 hours vs renilla
Description: Cells were transfected with the VEGF promoter (spanning the first 1000 bases upstream the starting site linked to luciferase reporter gene and with a control plasmid containing the renilla reporter gene. Cells were then treated with different concentrations of aplidine and luciferase activity was measured after 24 hours and compared to renilla activity.

[6] = Phase I, 1 h daily infusion x5 q3wk: toxicity and pharmacokinetics; type: in vivo, human
Description: as §1

aplidine
IC30 [1]: 0.45 nM | duration of stable disease, colon cancer ([2]; 1 patient): 9 months | response, renal cell cancer ([2]; 1 patient): mixed response | objective responses ([2]; in vivo): No objective responses | reduction in the size of the tumor, heavily pre-treated CRC ([2]; one patient): 40% | reduction in sum of tumour measurements, renal cell cancer and liver mets ([2]; one patient, mixed responses): 10% | duration of stable disease, heavily pre-treated CRC ([2]; one patient, total 13 cycles): ≥ 6 months | activity on human bladder cancer [3]: exceedingly high activity | promoter activity of VEGF, in words [4]: does not affect the promoter activity of VEGF | activity of transfected VEGF promoter, in words [5]: dose not decrease the activity of VEGF promoter; also recorded: did not decrease the transcription of VEGF | DLT ([6]; 80-960 μg/m^2 daily x5): no DLT has been documented | Bilirubin Grade 1 ([6]; DL 1, 80 ug/m^2): 1 | Diarrhoea Grade 1 ([6]; DL 1, 80 ug/m^2): 1 | Fatigue Grade 1 ([6]; DL 1, 80 ug/m^2): 1 | Fatigue Grade 2 ([6]; DL 1, 80 ug/m^2): 2 | Fever Grade 1 ([6]; DL 1, 80 ug/m^2): 1 | Fever Grade 2 ([6]; DL 1, 80 ug/m^2): 1 | Haemoglobin Grade 1 ([6]; DL 1, 80 ug/m^2): 1 | Haemoglobin Grade 2 ([6]; DL 1, 80 ug/m^2): 2 | Hyper-sensitivity Grade 1 ([6]; DL 1, 80 ug/m^2): 1 | Hyper-sensitivity Grade 2 ([6]; DL 1, 80 ug/m^2): 1 | Motor neuropathy Grade 1 ([6]; DL 1, 80 ug/m^2): 3 | Motor neuropathy Grade 2 ([6]; DL 1, 80 ug/m^2): 2 | Myalgia/weakness Grade 2 ([6]; DL 1, 80 ug/m^2): 1 | Nausea Grade 1 ([6]; DL 1, 80 ug/m^2): 2 | SGOT Grade 1 ([6]; DL 1, 80 ug/m^2): 1 | Sensory neuropathy Grade 1 ([6]; DL 1, 80 ug/m^2): 2 | Sensory neuropathy Grade 2 ([6]; DL 1, 80 ug/m^2): 1 | Haemoglobin Grade 3 ([6]; DL 1, 80 ug/m^2, doubtful): 3 | Diarrhoea Grade 1 ([6]; DL 2, 120 ug/m^2): 2 | Fatigue Grade 1 ([6]; DL 2, 120 ug/m^2): 3 | Haemoglobin Grade 1 ([6]; DL 2, 120 ug/m^2): 2 | Hyper-sensitivity Grade 1 ([6]; DL 2, 120 ug/m^2): 1 | Nausea Grade 1 ([6]; DL 2, 120 ug/m^2): 1 | SGOT Grade 1 ([6]; DL 2, 120 ug/m^2): 1 | Sensory neuropathy Grade 1 ([6]; DL 2, 120 ug/m^2): 2 | Granulocytes Grade 2 ([6]; DL 2, 120 ug/m^2, doubtful): 1 | Haemoglobin Grade 3 ([6]; DL 2, 120 ug/m^2, doubtful): 1 | Haemoglobin Grade 4 ([6]; DL 2, 120 ug/m^2, doubtful): 2 | CPK Grade 4 ([6]; DL 3, 240 ug/m^2): 1 | Creatinine Grade 1 ([6]; DL 3, 240 ug/m^2): 2 | Diarrhoea Grade 2 ([6]; DL 3, 240 ug/m^2): 2 | Fatigue Grade 1 ([6]; DL 3, 240 ug/m^2): 1 | Fatigue Grade 2 ([6]; DL 3, 240 ug/m^2): 1 | Fatigue Grade 3 ([6]; DL 3, 240 ug/m^2): 1 | Haemoglobin Grade 1 ([6]; DL 3, 240 ug/m^2): 1 | Haemoglobin Grade 2 ([6]; DL 3, 240 ug/m^2): 1 | Myalgia/weakness Grade 1 ([6]; DL 3, 240 ug/m^2): 1 | Nausea Grade 1 ([6]; DL 3, 240 ug/m^2): 2 | Nausea Grade 2 ([6]; DL 3, 240 ug/m^2): 1 | SGOT Grade 1 ([6]; DL 3, 240 ug/m^2): 2 | Sensory neuropathy Grade 1 ([6]; DL 3, 240 ug/m^2): 1 | Granulocytes Grade 1 ([6]; DL 3, 240 ug/m^2, doubtful): 1 | Granulocytes Grade 2 ([6]; DL 3, 240 ug/m^2, doubtful): 2 | Haemoglobin Grade 4 ([6]; DL 3, 240 ug/m^2, doubtful): 2 | Creatinine Grade 1 ([6]; DL 4, 360 ug/m^2): 1 | Diarrhoea Grade 1 ([6]; DL 4, 360 ug/m^2): 1 | Fatigue Grade 2 ([6]; DL 4, 360 ug/m^2): 3 | Fever Grade 1 ([6]; DL 4, 360 ug/m^2): 1 | Haemoglobin Grade 1 ([6]; DL 4, 360 ug/m^2): 2 | Haemoglobin Grade 2 ([6]; DL 4, 360 ug/m^2): 2 | Hyper-sensitivity Grade 1 ([6]; DL 4, 360 ug/m^2): 1 | Hyper-sensitivity Grade 2 ([6]; DL 4, 360 ug/m^2): 1 | Motor neuropathy Grade 1 ([6]; DL 4, 360 ug/m^2): 1 | Nausea Grade 1 ([6]; DL 4, 360 ug/m^2): 1 | Nausea Grade 3 ([6]; DL 4, 360 ug/m^2): 1 | SGOT Grade 1 ([6]; DL 4, 360 ug/m^2): 2 | Sensory neuropathy Grade 1 ([6]; DL 4, 360 ug/m^2): 1 | Sensory neuropathy Grade 2 ([6]; DL 4, 360 ug/m^2): 1 | Granulocytes Grade 1 ([6]; DL 4, 360 ug/m^2, doubtful): 1 | Haemoglobin Grade 3 ([6]; DL 4, 360 ug/m^2, doubtful): 1 | Haemoglobin Grade 4 ([6]; DL 4, 360 ug/m^2, doubtful): 2 | CPK Grade 1 ([6]; DL 5, 540 ug/m^2): 1 | Diarrhoea Grade 1 ([6]; DL 5, 540 ug/m^2): 2 | Fatigue Grade 2 ([6]; DL 5, 540 ug/m^2): 2 | Fatigue Grade 3 ([6]; DL 5, 540 ug/m^2): 1 | Fever Grade 2 ([6]; DL 5, 540 ug/m^2): 1 | Haemoglobin Grade 1 ([6]; DL 5, 540 ug/m^2): 1 | Haemoglobin Grade 2 ([6]; DL 5, 540 ug/m^2): 1 | Hyper-sensitivity Grade 1 ([6]; DL 5, 540 ug/m^2): 1 | Motor neuropathy Grade 1 ([6]; DL 5, 540 ug/m^2): 1 | Motor neuropathy Grade 2 ([6]; DL 5, 540 ug/m^2): 1 | Myalgia/weakness Grade 1 ([6]; DL 5, 540 ug/m^2): 1 | Nausea Grade 1 ([6]; DL 5, 540 ug/m^2): 2 | Nausea Grade 3 ([6]; DL 5, 540 ug/m^2): 1 | SGOT Grade 1 ([6]; DL 5, 540 ug/m^2): 2 | Sensory neuropathy Grade 1 ([6]; DL 5, 540 ug/m^2): 2 | Sensory neuropathy Grade 2 ([6]; DL 5, 540 ug/m^2): 1 | Granulocytes Grade 1 ([6]; DL 5, 540 ug/m^2, doubtful): 1 | Haemoglobin Grade 4 ([6]; DL 5, 540 ug/m^2, doubtful): 2 | Bilirubin Grade 1 ([6]; DL 6, 720 ug/m^2): 1 | CPK Grade 1 ([6]; DL 6, 720 ug/m^2): 1 | Diarrhoea Grade 1 ([6]; DL 6, 720 ug/m^2): 1 | Fatigue Grade 1 ([6]; DL 6, 720 ug/m^2): 1 | Fatigue Grade 4 ([6]; DL 6, 720 ug/m^2): 1 | Fever Grade 1 ([6]; DL 6, 720 ug/m^2): 1 | Haemoglobin Grade 2 ([6]; DL 6, 720 ug/m^2): 2 | Hyper-sensitivity Grade 3 ([6]; DL 6, 720 ug/m^2): 1 | Motor neuropathy Grade 3 ([6]; DL 6, 720 ug/m^2): 1 | Myalgia/weakness Grade 4 ([6]; DL 6, 720 ug/m^2): 1 | Nausea Grade 1 ([6]; DL 6, 720 ug/m^2): 3 | SGOT Grade 1 ([6]; DL 6, 720 ug/m^2): 2 | Sensory neuropathy Grade 1 ([6]; DL 6, 720 ug/m^2): 1 | Haemoglobin Grade 3 ([6]; DL 6, 720 ug/m^2, doubtful): 2 | Haemoglobin Grade 4 ([6]; DL 6, 720 ug/m^2, doubtful): 2 | Fatigue Grade 2 ([6]; DL 7, 960 ug/m^2): 2 | Haemoglobin Grade 2 ([6]; DL 7, 960 ug/m^2): 2 | Nausea Grade 1 ([6]; DL 7, 960 ug/m^2): 1 | Nausea Grade 2 ([6]; DL 7, 960 ug/m^2): 1 | Sensory neuropathy Grade 1 ([6]; DL 7, 960 ug/m^2): 1 | Granulocytes Grade 1 ([6]; DL 7, 960 ug/m^2, doubtful): 1 | Haemoglobin Grade 4 ([6]; DL 7, 960 ug/m^2, doubtful): 1 | haematological toxicities ([6]; Example 10): no haematological toxicities | plasma concentrations achieved ([6]; Example 10): > 1000 ng/mL | Grade 1 hypersensitivity reactions ([6]; Example 10, 20 patients): 7 patients | neuropathy or myopathy ([6]; Example 16): No clear evidence of neuropathy or myopathy | total body / plasma clearance ([6]; median): 0.38 L/min
